Test results from paper PMC7725003, “Systematically Studying the Optimal Amino Acid Distribution Patterns of the Amphiphilic Structure by Using the Ultrashort Amphiphiles” (Frontiers in Microbiology, 2020).
Where no end group is shown, it is not given here.

What was measured:
B. subtilis 63501 = assay type: cell-based, Bacillus subtilis; settings: 63501, 24 h
Outline: (§1)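 Peptides, diluted in 0.2% BSA, were mixed with mid-logarithmic cells in MHB (0.5–1 × 10^6 CFU/mL) and incubated for 24 h at 37 °C. Absorbance at 492 nm defined MIC as 95% growth inhibition; subculture onto agar overnight gave MBC as >99.9% kill.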

MRSA 43300 = assay type: cell-based, methicillin-resistant S. aureus; settings: 43300, 24 h
Outline: as §1

S. aureus 29213 [1] = assay type: cell-based, Staphylococcus aureus; settings: 29213, 24 h
Outline: as §1

S. aureus 25923 = assay type: cell-based, Staphylococcus aureus; settings: 25923, 24 h
Outline: as §1

[2] = system: all of the tested bacterial strains; assay: Geometric mean of MICs, all tested bacterial strains; assay type: cell-based
Outline: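 Mid-log bacteria at 0.5–1 × 10^6 CFU mL^–1 in MHB with peptides serially diluted in 0.2% BSA, 24 h at 37°C. MIC is the lowest concentration giving 95% growth inhibition by A492. MBC is the lowest giving >99.9% kill on agar subculture, and the GM is taken over all strains.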

Gram-negative bacteria [3] = settings: geometric mean of MBCs, 9 Gram-negative strains (Table 2)
Gram-positive bacteria [4] = settings: geometric mean of MBCs, 7 Gram-positive strains (Table 2)
Gram-positive bacteria [5] = system: Gram-positive bacteria
Outline: (§2)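 Broth microdilution adapted from NCCLS: mid-log bacteria diluted in MHB to 0.5–1 × 10^6 CFU mL^–1, mixed with peptides serially diluted in 0.2% BSA. After 24 h at 37°C, MIC taken as the lowest concentration inhibiting 95% of growth by absorbance at 492 nm. Assays repeated more than 3 times.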

Gram-negative bacteria [6] = system: Gram-negative bacteria
Outline: as §2

S. pullorum 7913 = assay type: cell-based, Salmonella pullorum; settings: 7913, 24 h
Outline: as §1

S. aureus 29213 [7] = assay: Salt sensitivity assay (MIC); assay type: cell-based, Staphylococcus aureus
Outline: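 MICs determined by broth microdilution in MHB with 0.5–1 × 10^6 CFU/mL, peptides serially diluted in 0.2% BSA, 24 h at 37°C. Medium supplemented with physiological salts (150 mM NaCl, 4.5 mM KCl, 6 μM NH4Cl, 8 μM ZnCl2, 1 mM MgCl2, 2mM CaCl2, 4 μM FeCl3). MIC = lowest concentration inhibiting 95% growth (A492).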

[8] = system: Listeria monocytogenes CGMCC 1.1075; assay type: cell-based; settings: CGMCC 1.1075, 24 h
Outline: as §1

E. coli ATCC 25922 = assay: Salt sensitivity assay (MIC); assay type: cell-based, Escherichia coli
Outline: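 The salt sensitivity of peptides was tested against E. coli ATCC 25922 using a modified NCCLS broth microdilution MIC method. Mid-log bacteria were diluted in MHB to 0.5–1 × 10^6 CFU mL^–1 and mixed in equal volumes with peptides serially diluted in 0.2% BSA in 96-well plates. Physiological salt was added where specified, and the assay was done three independent times.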

E. coli K99 = settings: MHB, 24 h 37°C, 95% growth inhibition
Experimental: (§3) The antimicrobial activities of the peptides were measured using a method adapted from the National Committee for Clinical Laboratory Standards (NCCLS) with some modifications ([Chou et al., 2016]). The specific procedure for these assays has been previously described. In brief, the bacterial cells were grown to a mid-logarithmic phase and diluted in MHB to an ultimate concentration of 0.5–1 × 10^6 CFU mL^–1. Subsequently, the peptides were consecutively diluted in a 0.2% BSA solution and then added to a bacterial solution in a 96-well plate at identical volumes. After incubation for 24 h at 37°C, the MICs were determined to be the lowest peptide concentration that inhibited 95% of the bacterial growth by monitoring the absorbance at 492 nm using a microplate reader. Subsequently, 50 μL of each incubation mixture was further transferred to agar plates and incubated overnight. […] Every assay was reproduced more than 3 times.

E. coli K88 = system: E. coli K88
Experimental: as §3

S. epidermidis 12228 = assay type: cell-based, Staphylococcus epidermidis; settings: 12228, 24 h
Outline: as §1

S. typhimurium 7731 = assay type: cell-based, Salmonella typhimurium; settings: 7731, 24 h
Outline: as §1

S. typhimurium 14028 = assay type: cell-based, Salmonella typhimurium; settings: 14028, 24 h
Outline: as §1

E. coli UB1005 = assay type: cell-based, Escherichia coli; settings: UB1005, 24 h
Outline: as §1

E. coli 25922 = assay type: cell-based, Escherichia coli; settings: 25922, 24 h
Outline: as §1

E. coli O78 = assay type: cell-based, Escherichia coli; settings: O78, 24 h
Outline: as §1

E. faecalis 29212 = assay type: cell-based, Enterococcus faecalis; settings: 29212, 24 h
Outline: as §1

P. aeruginosa 27853 = assay type: cell-based, Pseudomonas aeruginosa; settings: 27853, 24 h
Outline: as §1

[9] = therapeutic index TI = MHC/GM MIC
[10] = no added salt, three independent assays

LRRLRLLRL-NH2 [L12]
MBC (B. subtilis 63501): 32 µM | MIC (B. subtilis 63501): 16 µM | MIC (MRSA 43300): >64 µM | MIC (S. aureus 29213 [1]): >64 µM | MIC (S. aureus 25923): > 64 µM | GM, All ([2]; geometric mean of MICs across all tested strains): 64.00 µM | TI, All [2, 9]: 4.00 | GM MBC (Gram-negative bacteria [3]): 87.09 µM | GM MBC (Gram-positive bacteria [4]): 86.14 µM | GM MIC (Gram-positive bacteria [5]; geometric mean of MICs, 7 Gram-positive strains (Table 2)): 70.66 µM | TI, Gram-positive bacteria (Gram-positive bacteria [5]; [9]): 3.62 | GM MIC (Gram-negative bacteria [6]; geometric mean of MICs, 9 Gram-negative strains (Table 2)): 59.26 µM | TI, Gram-negative bacteria (Gram-negative bacteria [6]; [9]): 4.32 | MBC (S. pullorum 7913): 64 µM | MIC (S. pullorum 7913): 32 µM | MIC, FeCl3 (S. aureus 29213 [7]; 4 μM FeCl3): > 64 µM | MIC, NH4Cl (S. aureus 29213 [7]; 6 μM NH4Cl): > 64 µM | MIC, ZnCl2 (S. aureus 29213 [7]; 8 μM ZnCl2): > 64 µM | MIC, MgCl2 (S. aureus 29213 [7]; 1 mM MgCl2): > 64 µM | MIC, CaCl2 (S. aureus 29213 [7]; 2 mM CaCl2): > 64 µM | MIC, KCl (S. aureus 29213 [7]; 4.5 mM KCl): > 64 µM | MIC, NaCl (S. aureus 29213 [7]; 150 mM NaCl): > 64 µM | MIC, Control (S. aureus 29213 [7]; [10]): > 64 µM | MBC [8]: 32 µM | MIC [8]: 16 µM | MIC, FeCl3 (E. coli ATCC 25922; 4 μM FeCl3): 32 µM | MIC, NH4Cl (E. coli ATCC 25922; 6 μM NH4Cl): 32 µM | MIC, ZnCl2 (E. coli ATCC 25922; 8 μM ZnCl2): 32 µM | MIC, MgCl2 (E. coli ATCC 25922; 1 mM MgCl2): > 64 µM | MIC, CaCl2 (E. coli ATCC 25922; 2 mM CaCl2): > 64 µM | MIC, KCl (E. coli ATCC 25922; 4.5 mM KCl): 32 µM | MIC, NaCl (E. coli ATCC 25922; 150 mM NaCl): > 64 µM | MIC, Control (E. coli ATCC 25922; [10]): 32 µM | MIC (E. coli K99): > 64 µM | MIC (E. coli K88; MHB, 24 h 37°C, 95% growth inhibition): 16 µM | MBC (E. coli K88; value in brackets, >99.9% of cells killed): 32 µM | MIC (S. epidermidis 12228): > 64 µM | MIC (S. typhimurium 7731): > 64 µM | MIC (S. typhimurium 14028): > 64 µM | MBC (E. coli UB1005): 64 µM | MIC (E. coli UB1005): 32 µM | MBC (E. coli 25922): 64 µM | MIC (E. coli 25922): 32 µM | MBC (E. coli O78): 128 µM | MIC (E. coli O78): 64 µM | MIC (E. faecalis 29212): > 64 µM | MIC (P. aeruginosa 27853): > 64 µM
